Source: patent publication US4774381A, “Herbicide resistant tobacco” (E. I. Du Pont de Nemours and Company, priority 1985, dated 1988)

Tests used:
[1] = test system: Isolate 1 (+/+) cell line; assay: Callus growth test; format: cell-based, Nicotiana tabacum
Procedure: (§1) Callus growth tests were conducted substantially according to the following procedure. Approximately 50 mg callus tissue, grown on non-selective media, was spread over 7 cm diameter paper filter discs (Whatman No. 1), which were placed on the medium surface of petri dishes containing C1 agar media and varying concentrations of chlorsulfuron. The resulting cultures were incubated for 14 days at 25±1°, under fluorescent lamps programmed to provide a 16-hour photoperiod per day. At the conclusion of the incubation period, tissue was scraped from each filter disc and weighed. The final fresh weights were recorded, and means and standard errors of the means determined for all cases. The significance of differences between responses of individual cell lines to various concentrations of chlorsulfuron was determined at a probability level of 5% by a t-test for populations having different standard deviations, as described by Snedecor, et al., Statistical Methods (Iowa State University Press, Ames, Iowa, (1967), pp. 114-116).
(§2) The isolates tested were established from plants produced by self-fertilization of a S4/+ heterozygote produced by two successive backcrosses of a regenerated mutant plant to normal plants. In addition, growth responses were determined for cell cultures initiated from two individuals of the same genotype with respect to the S4 mutation. The genotypes of these cell lines were confirmed by progeny analyses of the plants from which they were derived. These precautions were intended to eliminate background variability which might otherwise obscure the effects of the resistance mutation.

[2] = test system: Isolate 16 (S4/S4) cell line; assay: Callus growth test; format: cell-based, Nicotiana tabacum
Procedure: as §1, §2

[3] = test system: Isolate 23 (S4/+) cell line; assay: Callus growth test; format: cell-based, Nicotiana tabacum; conditions: 14 days
Procedure: as §1, §2

[4] = test system: Isolate 24 (S4/+) cell line; assay: Callus growth test; format: cell-based, Nicotiana tabacum; conditions: 14 days
Procedure: as §1, §2

[5] = test system: Isolate 30 (S4/S4) cell line; assay: Callus growth test; format: cell-based, Nicotiana tabacum; conditions: 14 days
Procedure: as §1, §2

[6] = test system: Isolate 7 (+/+) cell line; assay: Callus growth test; format: cell-based, Nicotiana tabacum; conditions: 14 days
Procedure: as §1, §2

H1 (parent) callus = assay: Callus growth test with chlorsulfuron and structural analogues; format: cell-based, Nicotiana tabacum; conditions: 10 ppb compound, 2 weeks in the dark
Procedure: (§3) In these growth tests, petri dishes containing C1 agar medium and 10 ppb of the sulfonamide herbicide chlorsulfuron and Compounds A through E were prepared. A sterile filter paper disc was placed in the center of each plate, and inoculated with 250 mg of callus tissue homozygous for the S4 mutation, or callus tissue derived from the haploid parent H1. The resulting cultures were incubated at 25° in the dark for 2 weeks. At the conclusion of the incubation period, filter discs containing callus cells were removed from culture dishes, placed on a Buchner funnel, and gentle suction applied to remove excess water. The resulting callus mass was then carefully scraped from the filter disc and weighed. Four replicates were included in each experiment.

S4/S4 callus = assay: as above; format: cell-based, Nicotiana tabacum; conditions: 10 ppb compound, 2 weeks in the dark
Procedure: as §3

[7] = test system: homozygous mutant (S4) plants; assay: Foliar spray whole plant test; format: in vivo, Nicotiana tabacum
Procedure: Further studies of the effect of the S4 mutation on whole plant response to chlorsulfuron were conducted with plants of the parental variety and progeny of homozygous mutant and homozygous normal isolates (Nos. 16 and 1, respectively) of the previously described backcross program. Accordingly, plants of the latter two types were derived, but separated by four generations, from the initial S4 mutant plant regenerated from callus culture.
Plants at the 4-5 leaf stage were treated with foliar sprays of an aqueous solution containing 10% (v/v) acetone, 0.2% polyoxyethylene sorbitan monolaurate (Tween 20 ), and 1,3, 10, 30 or 100 ppm chlorsulfuron. Each plant received 5 mL of a spray solution. Two weeks after treatment, plants were evaluated for phytotoxicity and shoot heights were measured. […] At this lowest level of application, apical buds and youngest leaves of these sensitive plants were chlorotic. […] These symptoms were more pronounced with increasing chlorsulfuron concentrations. […] In contrast, homozygous mutant plants were unaffected by treatment with chlorsulfuron, even at the highest test concentration of 100 ppm.

[8] = test system: pea seedlings and root cultures; conditions: medium supplementation; cited from earlier work
[9] = Nicotiana tabacum, 336 h, chlorsulfuron 1.0 ppb, 14 days, read-out: % of fresh weight at 0 ppb
[10] = Nicotiana tabacum, 336 h, chlorsulfuron 3.0 ppb, 14 days, read-out: % of fresh weight at 0 ppb
[11] = Nicotiana tabacum, 336 h, chlorsulfuron 0.3 ppb, read-out: % of fresh weight at 0 ppb
[12] = Nicotiana tabacum, 336 h, chlorsulfuron 1.0 ppb, read-out: % of fresh weight at 0 ppb
[13] = Nicotiana tabacum, 336 h, chlorsulfuron 3.0 ppb, read-out: % of fresh weight at 0 ppb
[14] = Nicotiana tabacum, 336 h, chlorsulfuron 10.0 ppb, read-out: % of fresh weight at 0 ppb
[15] = Nicotiana tabacum, 336 h, chlorsulfuron 30.0 ppb, read-out: % of fresh weight at 0 ppb

Compound: COc1nc(C)nc(NC(=O)NS(=O)(=O)c2ccccc2Cl)n1 [Chlorsulfuron, chlorsulfuron]
- significance of growth inhibition (t-test, 5%) ([1]; 0.1 ppb chlorsulfuron): significantly inhibited
- activity at 0.0001 µg/mL ([1]; Nicotiana tabacum, 336 h, chlorsulfuron 0.1 ppb, 14 days, read-out: % of fresh weight at 0 ppb): 76.7%
- activity at 0.0003 µg/mL ([1]; Nicotiana tabacum, 336 h, chlorsulfuron 0.3 ppb, 14 days, read-out: % of fresh weight at 0 ppb): 40.4%
- activity at 0.001 µg/mL [1, 9]: 3.6%
- activity at 0.003 µg/mL [1, 10]: 1.8%
- Fr. Wt. ([1]; chlorsulfuron 0.1 ppb, 14 days): 2287 ± 198 mg
- Fr. Wt. ([1]; chlorsulfuron 0.3 ppb, 14 days): 1204 ± 107 mg
- Fr. Wt. ([1]; chlorsulfuron 1.0 ppb, 14 days): 106 ± 9 mg
- Fr. Wt. ([1]; chlorsulfuron 3.0 ppb, 14 days): 55 ± 3 mg
- activity at 0.001 µg/mL [2, 9]: 95.8%
- activity at 0.003 µg/mL [2, 10]: 90%
- activity at 0.01 µg/mL ([2]; Nicotiana tabacum, 336 h, chlorsulfuron 10.0 ppb, 14 days, read-out: % of fresh weight at 0 ppb): 95.5%
- activity at 0.03 µg/mL ([2]; Nicotiana tabacum, 336 h, chlorsulfuron 30.0 ppb, 14 days, read-out: % of fresh weight at 0 ppb): 79.9%
- significance of growth inhibition (t-test, 5%) ([2]; both homozygous mutant lines (Isolates 16 and 30), concentrations below 30 ppb): neither homozygous mutant cell was significantly inhibited
- Fr. Wt. ([2]; chlorsulfuron 0.1 ppb, 14 days): 3755 ± 259 mg
- Fr. Wt. ([2]; chlorsulfuron 0.3 ppb, 14 days): 3778 ± 219 mg
- Fr. Wt. ([2]; chlorsulfuron 1.0 ppb, 14 days): 3148 ± 196 mg
- Fr. Wt. ([2]; chlorsulfuron 3.0 ppb, 14 days): 2958 ± 161 mg
- Fr. Wt. ([2]; chlorsulfuron 10.0 ppb, 14 days): 3171 ± 260 mg
- Fr. Wt. ([2]; chlorsulfuron 30.0 ppb, 14 days): 2625 ± 202 mg
- increase of tolerance of cultured cells by S4 mutation ([2]; homozygous lines at 30 ppb versus Isolate 7 at 0.3 ppb): at least 100 fold
- activity at 0.0003 µg/mL [3, 11]: 95.8%
- activity at 0.001 µg/mL [3, 12]: 93.8%
- activity at 0.003 µg/mL [3, 13]: 89.9%
- activity at 0.01 µg/mL [3, 14]: 57.6%
- activity at 0.03 µg/mL [3, 15]: 28.1%
- Fr. Wt. ([3]; chlorsulfuron 0.1 ppb): 2803 ± 153 mg
- Fr. Wt. ([3]; chlorsulfuron 0.3 ppb): 2559 ± 174 mg
- Fr. Wt. ([3]; chlorsulfuron 1.0 ppb): 2505 ± 134 mg
- Fr. Wt. ([3]; chlorsulfuron 3.0 ppb): 2401 ± 218 mg
- Fr. Wt. ([3]; chlorsulfuron 10.0 ppb): 1537 ± 90 mg
- Fr. Wt. ([3]; chlorsulfuron 30.0 ppb): 749 ± 54 mg
- activity at 0.0003 µg/mL [4, 11]: 98.9%
- activity at 0.001 µg/mL [4, 12]: 87.5%
- activity at 0.003 µg/mL [4, 13]: 73%
- activity at 0.01 µg/mL [4, 14]: 76.4%
- activity at 0.03 µg/mL [4, 15]: 55.1%
- Fr. Wt. ([4]; chlorsulfuron 0.1 ppb): 2895 ± 187 mg
- Fr. Wt. ([4]; chlorsulfuron 0.3 ppb): 2842 ± 124 mg
- Fr. Wt. ([4]; chlorsulfuron 1.0 ppb): 2515 ± 155 mg
- Fr. Wt. ([4]; chlorsulfuron 3.0 ppb): 2099 ± 129 mg
- Fr. Wt. ([4]; chlorsulfuron 10.0 ppb): 2196 ± 235 mg
- Fr. Wt. ([4]; chlorsulfuron 30.0 ppb): 1585 ± 129 mg
- activity at 0.001 µg/mL [5, 12]: 98.4%
- activity at 0.03 µg/mL [5, 15]: 90.3%
- Fr. Wt. ([5]; chlorsulfuron 0.1 ppb): 3235 ± 159 mg
- Fr. Wt. ([5]; chlorsulfuron 0.3 ppb): 3157 ± 76 mg
- Fr. Wt. ([5]; chlorsulfuron 1.0 ppb): 2707 ± 250 mg
- Fr. Wt. ([5]; chlorsulfuron 3.0 ppb): 3287 ± 136 mg
- Fr. Wt. ([5]; chlorsulfuron 10.0 ppb): 2975 ± 139 mg
- Fr. Wt. ([5]; chlorsulfuron 30.0 ppb): 2486 ± 170 mg
- activity at 0.0001 µg/mL ([6]; Nicotiana tabacum, 336 h, chlorsulfuron 0.1 ppb, read-out: % of fresh weight at 0 ppb): 93.1%
- activity at 0.0003 µg/mL [6, 11]: 59.8%
- activity at 0.001 µg/mL [6, 12]: 9.2%
- activity at 0.003 µg/mL [6, 13]: 2.5%
- Fr. Wt. ([6]; chlorsulfuron 0.1 ppb): 2170 ± 94 mg
- Fr. Wt. ([6]; chlorsulfuron 0.3 ppb): 1395 ± 116 mg
- Fr. Wt. ([6]; chlorsulfuron 1.0 ppb): 215 ± 33 mg
- Fr. Wt. ([6]; chlorsulfuron 3.0 ppb): 58 ± 4 mg
- Mean Fresh Weight (H1 (parent) callus): 0 g
- Mean Fresh Weight (S4/S4 callus): 4.42 g
- increase of resistance of plants by S4 mutation ([7]; homozygous state): at least 100 fold
- phytotoxicity two weeks after foliar spray ([7]; up to highest test concentration of 100 ppm chlorsulfuron): unaffected
- reversal of growth inhibition [8]: prevented by supplementation of the medium with isoleucine and valine
